{
  "source": "patent US20200085776A1",
  "about": "“Methods of Reducing C-Reactive Protein and/or Treating Cardiovascular Disease” (CARDAX, INC., priority 2018, published 2020)",
  "system": "HDL",
  "test": "Fasting lipid panel: HDL, CHASE clinical study",
  "type": "in vivo, human",
  "conditions": "for HDL V2 to V6 % Change Max / HDL V2 to V6 % Change Mean (SD) / HDL V2 to V6 % Change Median / HDL V2 to V6 % Change Min / HDL V2 to V6 Change Max / HDL V2 to V6 Change Mean (SD) / HDL V2 to V6 Change Median / HDL V2 to V6 Change Min: baseline to Week 12",
  "source_text": "Blood samples shall be obtained under fasted conditions for a lipid panel at V2, V4, V6, V7, and V8. This panel shall include total cholesterol, LDL-C, VLDL-C, HDL-C, and triglycerides. A minimum eight-hour fast (water allowed) is required for the lipid panel.\nFasting lipid profiles and fasting chemistry panels may be obtained within the visit time window on a day separate from the scheduled office visit, within two days before or after the other study procedures. A minimum of eight hours fasted (water allowed ad lib) is required.\nTable 7M provides the changes in lipid levels (mg/dL) (V2 to V6) for subjects.",
  "key": {"[1]": {"conditions": "Group X 12 mg BID, V2 baseline pre-dose, all subjects"}, "[2]": {"conditions": "Group X 12 mg BID, V2 baseline pre-dose, subjects with hyperlipidemia"}, "[3]": {"conditions": "Group X 12 mg BID, V6 Week 12, all subjects"}, "[4]": {"conditions": "Group X 12 mg BID, V6 Week 12, subjects with hyperlipidemia"}, "[5]": {"conditions": "Group X 12 mg BID, all subjects"}, "[6]": {"conditions": "Group X 12 mg BID, subjects with hyperlipidemia"}, "[7]": {"conditions": "Group Z 48 mg BID, V2 baseline pre-dose, all subjects"}, "[8]": {"conditions": "Group Z 48 mg BID, V2 baseline pre-dose, subjects with hyperlipidemia"}, "[9]": {"conditions": "Group Z 48 mg BID, V6 Week 12, all subjects"}, "[10]": {"conditions": "Group Z 48 mg BID, V6 Week 12, subjects with hyperlipidemia"}, "[11]": {"conditions": "Group Z 48 mg BID, all subjects"}, "[12]": {"conditions": "Group Z 48 mg BID, subjects with hyperlipidemia"}},
  "data": [
    {"smiles": "CC1=C(/C=C/C(C)=C/C=C/C(C)=C/C=C/C=C(C)/C=C/C=C(C)/C=C/C2=C(C)C(=O)C(O)CC2(C)C)C(C)(C)CC(O)C1=O", "note": "(stereo not shown) [Astaxanthin, astaxanthin]", "values": [
      {"measurement": "HDL Max", "setting": "[1]", "result": 73.00, "unit": "mg/dL"},
      {"measurement": "HDL Mean (SD)", "setting": "[1]", "result": "46.00 (17.37) mg/dL"},
      {"measurement": "HDL Median", "setting": "[1]", "result": 42.00, "unit": "mg/dL"},
      {"measurement": "HDL Min", "setting": "[1]", "result": 24.00, "unit": "mg/dL"},
      {"measurement": "HDL Max", "setting": "[2]", "result": 67.00, "unit": "mg/dL"},
      {"measurement": "HDL Mean (SD)", "setting": "[2]", "result": "45.38 (17.08) mg/dL"},
      {"measurement": "HDL Median", "setting": "[2]", "result": 42.50, "unit": "mg/dL"},
      {"measurement": "HDL Min", "setting": "[2]", "result": 24.00, "unit": "mg/dL"},
      {"measurement": "HDL Max", "setting": "[3]", "result": 68.00, "unit": "mg/dL"},
      {"measurement": "HDL Mean (SD)", "setting": "[3]", "result": "45.27 (13.68) mg/dL"},
      {"measurement": "HDL Median", "setting": "[3]", "result": 42.00, "unit": "mg/dL"},
      {"measurement": "HDL Min", "setting": "[3]", "result": 29.00, "unit": "mg/dL"},
      {"measurement": "HDL Max", "setting": "[4]", "result": 65.00, "unit": "mg/dL"},
      {"measurement": "HDL Mean (SD)", "setting": "[4]", "result": "44.13 (13.24) mg/dL"},
      {"measurement": "HDL Median", "setting": "[4]", "result": 41.00, "unit": "mg/dL"},
      {"measurement": "HDL Min", "setting": "[4]", "result": 29.00, "unit": "mg/dL"},
      {"measurement": "HDL V2 to V6 % Change Max", "setting": "[5]", "result": 24.14, "unit": "%"},
      {"measurement": "HDL V2 to V6 % Change Mean (SD)", "setting": "[5]", "result": "1.78 (14.18) %"},
      {"measurement": "HDL V2 to V6 % Change Median", "setting": "[5]", "result": "−2.99", "unit": "%"},
      {"measurement": "HDL V2 to V6 % Change Min", "setting": "[5]", "result": "−16.3", "unit": "%"},
      {"measurement": "HDL V2 to V6 Change Max", "setting": "[5]", "result": 7.00, "unit": "mg/dL"},
      {"measurement": "HDL V2 to V6 Change Mean (SD)", "setting": "[5]", "result": "−0.73 (5.75) mg/dL"},
      {"measurement": "HDL V2 to V6 Change Median", "setting": "[5]", "result": -1.00, "unit": "mg/dL"},
      {"measurement": "HDL V2 to V6 Change Min", "setting": "[5]", "result": -9.00, "unit": "mg/dL"},
      {"measurement": "HDL V2 to V6 % Change Max", "setting": "[6]", "result": 24.14, "unit": "%"},
      {"measurement": "HDL V2 to V6 % Change Mean (SD)", "setting": "[6]", "result": "0.85 (15.61) %"},
      {"measurement": "HDL V2 to V6 % Change Median", "setting": "[6]", "result": "−3.06", "unit": "%"},
      {"measurement": "HDL V2 to V6 % Change Min", "setting": "[6]", "result": "−16.3", "unit": "%"},
      {"measurement": "HDL V2 to V6 Change Max", "setting": "[6]", "result": 7.00, "unit": "mg/dL"},
      {"measurement": "HDL V2 to V6 Change Mean (SD)", "setting": "[6]", "result": "−1.25 (6.11) mg/dL"},
      {"measurement": "HDL V2 to V6 Change Median", "setting": "[6]", "result": -1.50, "unit": "mg/dL"},
      {"measurement": "HDL V2 to V6 Change Min", "setting": "[6]", "result": -9.00, "unit": "mg/dL"},
      {"measurement": "HDL Max", "setting": "[7]", "result": 77.00, "unit": "mg/dL"},
      {"measurement": "HDL Mean (SD)", "setting": "[7]", "result": "47.79 (14.77) mg/dL"},
      {"measurement": "HDL Median", "setting": "[7]", "result": 40.00, "unit": "mg/dL"},
      {"measurement": "HDL Min", "setting": "[7]", "result": 29.00, "unit": "mg/dL"},
      {"measurement": "HDL Max", "setting": "[8]", "result": 77.00, "unit": "mg/dL"},
      {"measurement": "HDL Mean (SD)", "setting": "[8]", "result": "44.93 (13.59) mg/dL"},
      {"measurement": "HDL Median", "setting": "[8]", "result": 40.00, "unit": "mg/dL"},
      {"measurement": "HDL Min", "setting": "[8]", "result": 29.00, "unit": "mg/dL"},
      {"measurement": "HDL Max", "setting": "[9]", "result": 75.00, "unit": "mg/dL"},
      {"measurement": "HDL Mean (SD)", "setting": "[9]", "result": "47.11 (14.59) mg/dL"},
      {"measurement": "HDL Median", "setting": "[9]", "result": 41.00, "unit": "mg/dL"},
      {"measurement": "HDL Min", "setting": "[9]", "result": 30.00, "unit": "mg/dL"},
      {"measurement": "HDL Max", "setting": "[10]", "result": 72.00, "unit": "mg/dL"},
      {"measurement": "HDL Mean (SD)", "setting": "[10]", "result": "44.71 (13.00) mg/dL"},
      {"measurement": "HDL Median", "setting": "[10]", "result": 39.00, "unit": "mg/dL"},
      {"measurement": "HDL Min", "setting": "[10]", "result": 32.00, "unit": "mg/dL"},
      {"measurement": "HDL V2 to V6 % Change Max", "setting": "[11]", "result": 24.53, "unit": "%"},
      {"measurement": "HDL V2 to V6 % Change Mean (SD)", "setting": "[11]", "result": "−3.43 (10.55) %"},
      {"measurement": "HDL V2 to V6 % Change Median", "setting": "[11]", "result": "−5.80", "unit": "%"},
      {"measurement": "HDL V2 to V6 % Change Min", "setting": "[11]", "result": "−22.7", "unit": "%"},
      {"measurement": "HDL V2 to V6 Change Max", "setting": "[11]", "result": 13.00, "unit": "mg/dL"},
      {"measurement": "HDL V2 to V6 Change Mean (SD)", "setting": "[11]", "result": "−1.72 (5.19) mg/dL"},
      {"measurement": "HDL V2 to V6 Change Median", "setting": "[11]", "result": -3.00, "unit": "mg/dL"},
      {"measurement": "HDL V2 to V6 Change Min", "setting": "[11]", "result": -10.0, "unit": "mg/dL"},
      {"measurement": "HDL V2 to V6 % Change Max", "setting": "[12]", "result": 24.53, "unit": "%"},
      {"measurement": "HDL V2 to V6 % Change Mean (SD)", "setting": "[12]", "result": "−2.50 (11.26) %"},
      {"measurement": "HDL V2 to V6 % Change Median", "setting": "[12]", "result": "−4.04", "unit": "%"},
      {"measurement": "HDL V2 to V6 % Change Min", "setting": "[12]", "result": "−22.7", "unit": "%"},
      {"measurement": "HDL V2 to V6 Change Max", "setting": "[12]", "result": 13.00, "unit": "mg/dL"},
      {"measurement": "HDL V2 to V6 Change Mean (SD)", "setting": "[12]", "result": "−1.36 (5.64) mg/dL"},
      {"measurement": "HDL V2 to V6 Change Median", "setting": "[12]", "result": -2.00, "unit": "mg/dL"},
      {"measurement": "HDL V2 to V6 Change Min", "setting": "[12]", "result": -10.0, "unit": "mg/dL"}
    ]}
  ]
}
